The record followed here is patent publication US20230190769A1, “E PROTEIN CHANNEL BLOCKERS AND ORF3 INHIBITORS AS ANTI-COVID-19 AGENTS” (priority 2020, published 2023).

Read-outs that look alike come from different tables or passages of the source.

Assay type in all cases: cell-based
Assay [1] has as its target T1, SARS-CoV-2 E protein (Severe acute respiratory syndrome coronavirus 2, UniProt P0DTC4).
A further assay deals with SARS-CoV-2 3a protein (Severe acute respiratory syndrome coronavirus 2, UniProt P0DTC3).
Sequence of SARS-CoV-2 3a protein (P0DTC3 whole entry, looked up): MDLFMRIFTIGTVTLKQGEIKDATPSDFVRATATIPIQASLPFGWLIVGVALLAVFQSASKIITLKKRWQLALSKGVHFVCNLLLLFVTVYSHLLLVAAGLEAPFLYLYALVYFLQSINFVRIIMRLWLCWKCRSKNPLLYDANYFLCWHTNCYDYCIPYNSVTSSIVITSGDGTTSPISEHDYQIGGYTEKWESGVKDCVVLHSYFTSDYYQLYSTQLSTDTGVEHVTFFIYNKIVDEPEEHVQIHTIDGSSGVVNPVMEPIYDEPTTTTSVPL
The test system of the next assay is SARS-CoV-2. The note with it: for protection, effect on cell survival (FIG. 24 legend): individual 3a protein inhibitor at a concentration of 3 μM; for cell survival (in words): sole compound at 3, FIG. 24; for effectiveness of compounds on their own: sole compounds, protection of cells against viral death.
Assay [2] deals with T1, SARS-CoV-2 E protein. The source holds these as a separate data set.
The target of assay [3] is T1, SARS-CoV-2 E protein. The source holds these as a separate data set.
Setting [4] is: 3000 molecules screened against E protein.
[5] abbreviates: 3,000 molecules screened against 3a protein.

T1 sequence (P0DTC4 whole entry, looked up): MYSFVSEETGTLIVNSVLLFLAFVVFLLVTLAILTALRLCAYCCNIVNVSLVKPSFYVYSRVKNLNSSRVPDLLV

Take `Nc1ncn([C@@H]2O[C@H](CO)[C@@H](O)[C@H]2O)c(=O)n1` [Azacytidine, 4-Amino-1-β-D-ribofuranosyl-s-triazin-2(1H)-one]: the “outcome of screen: SARS-CoV-2 E protein channel blocker” value on SARS-CoV-2 E protein [1] (setting [4]) is recorded as “can be used as SARS-CoV-2 E protein channel blocker”.

For `C1CNCCNCCNCCN1` [Cyclen, 1,4,7,10-Tetraazacyclododecane], the “outcome of screen: SARS-CoV-2 E protein channel blocker” value at SARS-CoV-2 E protein [1] (setting [4]) is “can be used as SARS-CoV-2 E protein channel blocker”.

As to `CCN(CC)CCN(Cc1ccc(-c2ccc(C(F)(F)F)cc2)cc1)C(=O)Cn1c(SCc2ccc(F)cc2)nc(=O)c2c1CCC2` [Darapladib, N-(2-Diethylaminoethyl)-2-[2-[(4-fluorophenyl)methylsulfanyl]-4-oxo-6,7-dihydro-5H-cyclopenta[d]pyrimidin-1-yl]-N-[[4-[4-(trifluoromethyl)phenyl]phenyl]methyl]acetamide], the “outcome of screen: SARS-CoV-2 3a protein inhibitor” value on SARS-CoV-2 3a protein (setting [5]) was “can be used as SARS-CoV-2 3a protein inhibitor”. Also, in the assay on SARS-CoV-2, the “protection, effect on cell survival (FIG. 24 legend)” value is “near full protection”; the “cell survival (in words)” value is on record as “full survival”; the “effectiveness of compounds on their own” value is listed as “most effective”.

On to `O=c1[nH]c(=O)n(C2CC(O)C(CO)O2)cc1F` (stereo not shown) [Floxuridine, 5-Fluoro-1-[4-hydroxy-5-(hydroxymethyl)tetrahydrofuran-2-yl]-1H-pyrimidine-2,4-dione], for which the “outcome of screen: SARS-CoV-2 3a protein inhibitor” value at SARS-CoV-2 3a protein (setting [5]) is “can be used as SARS-CoV-2 3a protein inhibitor”.

As for `Cc1ncc(NC(=O)c2ccc(CN3CCN(C)CC3)c(C(F)(F)F)c2)cc1Nc1nccc(-c2cccnc2)n1` [Flumatinib, 4-[(4-methylpiperazin-1-yl)methyl]-N-[6-methyl-5-[(4-pyridin-3-ylpyrimidin-2-yl)amino]pyridin-3-yl]-3-(trifluoromethyl)benzamide], the “outcome of screen: SARS-CoV-2 3a protein inhibitor” value on SARS-CoV-2 3a protein (setting [5]) is listed as “can be used as SARS-CoV-2 3a protein inhibitor”. Moreover, in the assay with SARS-CoV-2, the “protection, effect on cell survival (FIG. 24 legend)” value is reported as “near full protection”; the “cell survival (in words)” value was “near full survival”; the “effectiveness of compounds on their own” value is on record as “most effective”.

Take `Cc1ccc(S(=O)(=O)NC(=O)NN2CC3CCCC3C2)cc1` (stereo not shown) [Gliclazide, 1-(3-azabicyclo(3.3.0)oct-3-yl)-3-(p-tolylsulfonyl)urea]: at SARS-CoV-2 E protein [1] (setting [4]), the “outcome of screen: SARS-CoV-2 E protein channel blocker” value was “can be used as SARS-CoV-2 E protein channel blocker”. The “bacterial growth in positive assay” value on SARS-CoV-2 E protein [2] is reported as “inhibited growth”. The “bacterial growth in negative assay” value on SARS-CoV-2 E protein [3] is listed as “enhance bacterial growth”.

`C[C@H]1O[C@H](OC2[C@@H](O)[C@@H](O)C(O)[C@H](O)[C@H]2O)[C@@H](N)C[C@@H]1N=C(N)C(=O)O` (stereo partly drawn) [Kasugamycin, 2-amino-2-[(2R,3 S,5 S,6R)-5-amino-2-methyl-6-[(2R,3 S,5S,6S)-2,3,4,5,6-pentahydroxycyclohexyl]oxyoxan-3-yl]iminoacetic acid]: the “outcome of screen: SARS-CoV-2 E protein channel blocker” value on SARS-CoV-2 E protein [1] (setting [4]) is “can be used as SARS-CoV-2 E protein channel blocker”. In addition, the “outcome of screen: SARS-CoV-2 3a protein inhibitor” value at SARS-CoV-2 3a protein (setting [5]) is recorded as “can be used as SARS-CoV-2 3a protein inhibitor”.

Regarding `CCNCCS(=O)(=O)NC[C@@]1(c2ccccc2)SC(NC(=O)C(C)(C)C)=NN1C(=O)C(C)(C)C` [Litronesib, N-[(5R)-4-(2,2-dimethylpropanoyl)-5-[[2-(ethylamino)ethylsulfonylamino]methyl]-5-phenyl-1,3,4-thiadiazol-2-yl]-2,2-dimethylpropanamide], the “outcome of screen: SARS-CoV-2 3a protein inhibitor” value on SARS-CoV-2 3a protein (setting [5]) is “can be used as SARS-CoV-2 3a protein inhibitor”.

Turning to `NCCCCN(Cc1nc2ccccc2[nH]1)[C@H]1CCCc2cccnc21` [Mavorixafor, N-(1H-benzimidazol-2-ylmethyl)-N-[(8S)-5,6,7,8-tetrahydroquinolin-8-yl]butane-1,4-diamine], the “outcome of screen: SARS-CoV-2 E protein channel blocker” value at SARS-CoV-2 E protein [1] (setting [4]) is listed as “can be used as SARS-CoV-2 E protein channel blocker”.

In the case of `Cc1cc(C)c(NC(=O)CN(CC(=O)O)CC(=O)O)c(C)c1Br` [Mebrofenin, 2-[[2-(3-bromo-2,4,6-trimethylanilino)-2-oxoethyl]-(carboxymethyl)amino]acetic acid], at SARS-CoV-2 E protein [1] (setting [4]), the “outcome of screen: SARS-CoV-2 E protein channel blocker” value was “can be used as SARS-CoV-2 E protein channel blocker”.

With `CC12CC3CC(C)(C1)CC(N)(C3)C2` [Memantine, 1-amino-3,5-dimethyladamantane], the “outcome of screen: SARS-CoV-2 E protein channel blocker” value on SARS-CoV-2 E protein [1] (setting [4]) is “can be used as SARS-CoV-2 E protein channel blocker”. The “bacterial growth in positive assay” value at SARS-CoV-2 E protein [2] is “inhibited growth”. In addition, the “bacterial growth in negative assay” value at SARS-CoV-2 E protein [3] is given as “enhance bacterial growth”.

In the case of `N=C(N)c1ccc(OCCCCCOc2ccc(C(=N)N)cc2)cc1` [Pentamidine, 4,4′-[pentane-1,5-diylbis(oxy)]dibenzenecarboximidamide], on SARS-CoV-2 3a protein (setting [5]), the “outcome of screen: SARS-CoV-2 3a protein inhibitor” value is given as “can be used as SARS-CoV-2 3a protein inhibitor”.

Take `c1cc(CN2CCCNCCNCCCNCC2)ccc1CN1CCCNCCNCCCNCC1` [Plerixafor, 1-[[4-(1,4,8,11-tetrazacyclotetradec-1-ylmethyl)phenyl]methyl]-1,4,8,11-tetrazacyclotetradecane]: at SARS-CoV-2 E protein [1], the “outcome of screen: SARS-CoV-2 E protein channel blocker” value is listed as “can be used as SARS-CoV-2 E protein channel blocker”. Besides, the “outcome of screen: SARS-CoV-2 3a protein inhibitor” value at SARS-CoV-2 3a protein is listed as “can be used as SARS-CoV-2 3a protein inhibitor”.

Consider `CCO[C@@H](Cc1ccc(OCCn2c(C)ccc2-c2ccc(SC)cc2)cc1)C(=O)O` [Saroglitazar Magnesium, (αS)-α-Ethoxy-4-[2-[2-methyl-5-[4-(methylthio)phenyl]-1H-pyrrol-1-yl]ethoxy]benzenepropanoic Acid], for which the “outcome of screen: SARS-CoV-2 E protein channel blocker” value at SARS-CoV-2 E protein [1] (setting [4]) is on record as “can be used as SARS-CoV-2 E protein channel blocker”.

With `CN[C@@H]1[C@H](O)[C@H](NC)[C@H]2O[C@@]3(O)C(=O)C[C@@H](C)O[C@H]3O[C@@H]2[C@H]1O` [Spectinomycin], on SARS-CoV-2 3a protein (setting [5]), the “outcome of screen: SARS-CoV-2 3a protein inhibitor” value is “can be used as SARS-CoV-2 3a protein inhibitor”.

Turning to Capreomycin, on SARS-CoV-2 3a protein (setting [5]), the “outcome of screen: SARS-CoV-2 3a protein inhibitor” value is reported as “can be used as SARS-CoV-2 3a protein inhibitor”.
